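Briefly, cells in 96-well plates were exposed to five compound concentrations for 48 h, and endpoints were estimated by linear interpolation. At the GI50, growth is halved. TGI denotes the concentration required for complete inhibition of growth.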
Experiments:
Assay in all cases: NCI-60 cell line screen, 48 h
SK-OV-3 ovarian = test system: SK-OV-3 ovarian
SK-MEL-28 melanoma = test system: SK-MEL-28 melanoma
NCI-H23 lung = test system: NCI-H23 lung
LXFL 529 NSCLC = test system: LXFL 529 NSCLC
HOP-92 NSCLC = test system: HOP-92 NSCLC
SF-295 CNS = test system: SF-295 CNS
HCT-15 colon = test system: HCT-15 colon
ACHN renal = test system: ACHN renal
UO-31 renal = test system: UO-31 renal
IGROV1 ovarian = test system: IGROV1 ovarian
SNB-75 CNS = test system: SNB-75 CNS
M14 melanoma = test system: M14 melanoma
SK-MEL-5 melanoma = test system: SK-MEL-5 melanoma
MOLT-4 leukemia = test system: MOLT-4 leukemia
OVCAR-8 ovarian = test system: OVCAR-8 ovarian
SF-268 CNS = test system: SF-268 CNS
HOP-62 NSCLC = test system: HOP-62 NSCLC
SW-620 colon = test system: SW-620 colon
KM12 colon = test system: KM12 colon
DMS 114 small cell lung = test system: DMS 114 small cell lung
HT29 colon = test system: HT29 colon
OVCAR-4 ovarian = test system: OVCAR-4 ovarian
NCI-H226 lung = test system: NCI-H226 lung
EKVX NSCLC = test system: EKVX NSCLC
DLD-1 colon = test system: DLD-1 colon
DMS 273 small cell lung = test system: DMS 273 small cell lung
HCT-116 colon = test system: HCT-116 colon
A549 NSCLC = test system: A549 NSCLC
K-562 leukemia = test system: K-562 leukemia
HOP-18 NSCLC = test system: HOP-18 NSCLC
RXF 393 renal = test system: RXF 393 renal
HCC-2998 colon = test system: HCC-2998 colon
KM20L2 colon = test system: KM20L2 colon
RPMI-8226 leukemia = test system: RPMI-8226 leukemia
SN12C renal = test system: SN12C renal
RXF-631 renal = test system: RXF-631 renal
NCI-H522 lung = test system: NCI-H522 lung
M19-MEL melanoma = test system: M19-MEL melanoma
CCRF-CEM leukemia = test system: CCRF-CEM leukemia
OVCAR-3 ovarian = test system: OVCAR-3 ovarian
MALME-3M melanoma = test system: MALME-3M melanoma
UACC-62 melanoma = test system: UACC-62 melanoma
TK-10 renal = test system: TK-10 renal
UACC-257 melanoma = test system: UACC-257 melanoma
OVCAR-5 ovarian = test system: OVCAR-5 ovarian
U251 CNS = test system: U251 CNS
XF 498 CNS = test system: XF 498 CNS
SK-MEL-2 melanoma = test system: SK-MEL-2 melanoma
CAKI-1 renal = test system: CAKI-1 renal
SR leukemia = test system: SR leukemia
SNB-78 CNS = test system: SNB-78 CNS
NCI-H460 lung = test system: NCI-H460 lung
786-0 renal = test system: 786-0 renal
SNB-19 CNS = test system: SNB-19 CNS
SF-539 CNS = test system: SF-539 CNS
LOX IMVI melanoma = test system: LOX IMVI melanoma
HL-60(TB) leukemia = test system: HL-60(TB) leukemia
A498 renal = test system: A498 renal
COLO 205 colon = test system: COLO 205 colon

COc1c(NC(=O)CC(C)=O)[c]([Hg][O]C(C)=O)c(OC)c(Cl)[c]1[Hg][O]C(C)=O showed a GI50 (SK-OV-3 ovarian) of 17.2 µM, a TGI (SK-OV-3 ovarian) of 31.1 µM and a GI50 (SK-MEL-28 melanoma) of 11.3 µM. It also gave a TGI (SK-MEL-28 melanoma) of 23.9 µM, a GI50 (NCI-H23 lung) of 11.8 µM and a TGI (NCI-H23 lung) of 27.6 µM. The GI50 (LXFL 529 NSCLC) was 2.63 µM, the TGI (LXFL 529 NSCLC) was 11.1 µM and the GI50 (HOP-92 NSCLC) was 4.13 µM. The TGI (HOP-92 NSCLC) was 11.6 µM, the GI50 (SF-295 CNS) was 17 µM and the TGI (SF-295 CNS) was 31.8 µM. For the same compound, the GI50 (HCT-15 colon) was 14 µM, the TGI (HCT-15 colon) was 28.8 µM and the GI50 (ACHN renal) was 13 µM. The TGI (ACHN renal) was 25.6 µM, the GI50 (UO-31 renal) was 16.2 µM and the TGI (UO-31 renal) was 29.7 µM. The GI50 (IGROV1 ovarian) was 11.7 µM, the TGI (IGROV1 ovarian) was 28.3 µM and the GI50 (SNB-75 CNS) was 9.69 µM. It also gave a TGI (SNB-75 CNS) of 29.5 µM, a GI50 (M14 melanoma) of 13 µM and a TGI (M14 melanoma) of 25.7 µM. For the same compound, the GI50 (SK-MEL-5 melanoma) was 12.5 µM, the TGI (SK-MEL-5 melanoma) was 25 µM and the GI50 (MOLT-4 leukemia) was 19 µM. It also gave a TGI (MOLT-4 leukemia) of 64.4 µM, a GI50 (OVCAR-8 ovarian) of 17.8 µM and a TGI (OVCAR-8 ovarian) of 36.3 µM. It also gave a GI50 (SF-268 CNS) of 12.8 µM, a TGI (SF-268 CNS) of 28.5 µM and a GI50 (HOP-62 NSCLC) of 20.2 µM. It also gave a TGI (HOP-62 NSCLC) of 36.6 µM, a GI50 (SW-620 colon) of 7.62 µM and a TGI (SW-620 colon) of 20.8 µM. It also gave a GI50 (KM12 colon) of 13.8 µM, a TGI (KM12 colon) of 26.7 µM and a GI50 (DMS 114 small cell lung) of 1.61 µM. The TGI (DMS 114 small cell lung) was 13.5 µM, the GI50 (HT29 colon) was 11.3 µM and the TGI (HT29 colon) was 32.6 µM. For the same compound, the GI50 (OVCAR-4 ovarian) was 14.5 µM, the TGI (OVCAR-4 ovarian) was 35.7 µM and the GI50 (NCI-H226 lung) was 17.7 µM. The TGI (NCI-H226 lung) was 33.9 µM, the GI50 (EKVX NSCLC) was 22.3 µM and the TGI (EKVX NSCLC) was 41.4 µM. The GI50 (DLD-1 colon) was 14.2 µM, the TGI (DLD-1 colon) was 32.6 µM and the GI50 (DMS 273 small cell lung) was 16.4 µM. For the same compound, the TGI (DMS 273 small cell lung) was 31.9 µM, the GI50 (HCT-116 colon) was 15.2 µM and the TGI (HCT-116 colon) was 31.8 µM. For the same compound, the GI50 (A549 NSCLC) was 21.9 µM, the TGI (A549 NSCLC) was 47 µM and the GI50 (K-562 leukemia) was 8.46 µM. The TGI (K-562 leukemia) was 41.1 µM, the GI50 (HOP-18 NSCLC) was 13.6 µM and the TGI (HOP-18 NSCLC) was 26.5 µM. It also gave a GI50 (RXF 393 renal) of 9.7 µM, a TGI (RXF 393 renal) of 24.7 µM and a GI50 (HCC-2998 colon) of 18.8 µM. For the same compound, the TGI (HCC-2998 colon) was 34.3 µM, the GI50 (KM20L2 colon) was 14.6 µM and the TGI (KM20L2 colon) was 28.5 µM. The GI50 (RPMI-8226 leukemia) was 17.5 µM, the TGI (RPMI-8226 leukemia) was 63.5 µM and the GI50 (SN12C renal) was 15.4 µM. It also gave a TGI (SN12C renal) of 29.8 µM, a GI50 (RXF-631 renal) of 3.02 µM and a TGI (RXF-631 renal) of 13.7 µM. The GI50 (NCI-H522 lung) was 2.07 µM, the TGI (NCI-H522 lung) was 7.04 µM and the GI50 (M19-MEL melanoma) was 12.6 µM. The TGI (M19-MEL melanoma) was 25.1 µM, the GI50 (CCRF-CEM leukemia) was 4.8 µM and the TGI (CCRF-CEM leukemia) was 28.5 µM. The GI50 (OVCAR-3 ovarian) was 13.3 µM, the TGI (OVCAR-3 ovarian) was 26 µM and the GI50 (MALME-3M melanoma) was 5.17 µM. The TGI (MALME-3M melanoma) was 16.8 µM, the GI50 (UACC-62 melanoma) was 11 µM and the TGI (UACC-62 melanoma) was 22.9 µM. For the same compound, the GI50 (TK-10 renal) was 12.8 µM, the TGI (TK-10 renal) was 25.3 µM and the GI50 (UACC-257 melanoma) was 13.7 µM. For the same compound, the TGI (UACC-257 melanoma) was 26.5 µM, the GI50 (OVCAR-5 ovarian) was 25.7 µM and the TGI (OVCAR-5 ovarian) was 40.4 µM. For the same compound, the GI50 (U251 CNS) was 10.1 µM, the TGI (U251 CNS) was 23.2 µM and the GI50 (XF 498 CNS) was 2.55 µM. It also gave a TGI (XF 498 CNS) of 6.41 µM, a GI50 (SK-MEL-2 melanoma) of 14.4 µM and a TGI (SK-MEL-2 melanoma) of 27.6 µM. It also gave a GI50 (CAKI-1 renal) of 13 µM, a TGI (CAKI-1 renal) of 25.6 µM and a GI50 (SR leukemia) of 3.67 µM. It also gave a TGI (SR leukemia) of 82.1 µM, a GI50 (SNB-78 CNS) of 15.5 µM and a TGI (SNB-78 CNS) of 34.2 µM. It also gave a GI50 (NCI-H460 lung) of 21.3 µM, a TGI (NCI-H460 lung) of 49.9 µM and a GI50 (786-0 renal) of 6.47 µM. For the same compound, the TGI (786-0 renal) was 18.8 µM, the GI50 (SNB-19 CNS) was 18 µM and the TGI (SNB-19 CNS) was 32.3 µM. For the same compound, the GI50 (SF-539 CNS) was 2.72 µM and the TGI (SF-539 CNS) was 9.7 µM.

Work on COc1cc([C@@H]2c3cc4c(cc3[C@@H](NCc3ccccc3)C3COC(=O)[C@@H]32)OCO4)cc(OC)c1O (some centres not stated) yielded a TGI (SK-OV-3 ovarian) of over 58.9 µM, a TGI (SK-MEL-28 melanoma) of over 100 µM and a TGI (NCI-H23 lung) of 23.8 µM. It also gave a TGI (LXFL 529 NSCLC) of over 100 µM, a TGI (HOP-92 NSCLC) of 37.9 µM and a TGI (LOX IMVI melanoma) of 25.9 µM. The TGI (SF-295 CNS) was 26.5 µM, the TGI (HCT-15 colon) was 33.5 µM and the TGI (ACHN renal) was 5.92 µM. The TGI (UO-31 renal) was 17.6 µM, the TGI (IGROV1 ovarian) was over 92.3 µM and the TGI (SNB-75 CNS) was 23.8 µM. For the same compound, the TGI (M14 melanoma) was 36.6 µM, the TGI (SK-MEL-5 melanoma) was 35.8 µM and the TGI (HL-60(TB) leukemia) was 10.1 µM. For the same compound, the TGI (MOLT-4 leukemia) was 13 µM, the TGI (OVCAR-8 ovarian) was 51.7 µM and the TGI (SF-268 CNS) was 61.5 µM. The TGI (HOP-62 NSCLC) was 9.63 µM, the TGI (SW-620 colon) was 57.5 µM and the TGI (KM12 colon) was 49.3 µM. It also gave a TGI (DMS 114 small cell lung) of over 64.5 µM, a TGI (HT29 colon) of 60.1 µM and a TGI (OVCAR-4 ovarian) of over 75.5 µM. The TGI (NCI-H226 lung) was 11.2 µM, the TGI (EKVX NSCLC) was 38.1 µM and the TGI (DLD-1 colon) was over 100 µM. It also gave a TGI (DMS 273 small cell lung) of 36.7 µM, a TGI (HCT-116 colon) of over 100 µM and a TGI (A549 NSCLC) of 15.4 µM. The TGI (K-562 leukemia) was over 79.1 µM, the TGI (RXF 393 renal) was 72.2 µM and the TGI (HCC-2998 colon) was 33 µM. For the same compound, the TGI (KM20L2 colon) was 85.6 µM, the TGI (RPMI-8226 leukemia) was 21.2 µM and the TGI (SN12C renal) was 18.8 µM. It also gave a TGI (RXF-631 renal) of 30.2 µM, a TGI (M19-MEL melanoma) of over 100 µM and a TGI (CCRF-CEM leukemia) of over 27.2 µM. The TGI (OVCAR-3 ovarian) was 42.5 µM, the TGI (MALME-3M melanoma) was 32.7 µM and the TGI (A498 renal) was 19.4 µM. For the same compound, the TGI (UACC-62 melanoma) was 22.1 µM, the TGI (TK-10 renal) was over 61.7 µM and the TGI (UACC-257 melanoma) was over 90.2 µM. The TGI (COLO 205 colon) was over 89 µM, the TGI (OVCAR-5 ovarian) was over 66.6 µM and the TGI (U251 CNS) was 27.3 µM. The TGI (XF 498 CNS) was 41 µM, the TGI (SK-MEL-2 melanoma) was 52.2 µM and the TGI (CAKI-1 renal) was 14.5 µM. The TGI (SR leukemia) was 4.84 µM, the TGI (SNB-78 CNS) was over 100 µM and the TGI (NCI-H460 lung) was 15.8 µM. The TGI (786-0 renal) was 12.5 µM, the TGI (SNB-19 CNS) was 42 µM and the TGI (SF-539 CNS) was 26.7 µM.
